Patent US20250276983A1, “COMPOUNDS AND METHODS FOR MODULATING HER2” (IAMBIC THERAPEUTICS, INC., priority 2022, published 2025)
Read-outs that look alike come from different tables or passages of the source.

How the values were obtained:
Format in all cases: cell-based
BaF3_HER2YVMA cells = experiment: Cell growth inhibition assay, BaF3_HER2YVMA; settings: BaF3_HER2YVMA cells, 3 days treatment, CellTiterGlo 2.0, read-out: HER2-YVMA IC50 (nM), cell growth inhibition
BaF3_HER2WT cells = experiment: Cell growth inhibition assay, BaF3_HER2WT; settings: 3 days treatment, CellTiterGlo 2.0, read-out: HER2 WT IC50 (nM), cell growth inhibition
BaF3_EGFRWT cells = experiment: Cell growth inhibition assay, BaF3_EGFRWT; settings: 80 ng/mL recombinant human EGF, 3 days treatment, CellTiterGlo 2.0, read-out: EGFR WT IC50 (nM), cell growth inhibition

IC50 (BaF3_HER2YVMA cells; 72 h) [nM] | IC50 (BaF3_HER2WT cells; 72 h) [nM] | IC50 (BaF3_EGFRWT cells; 72 h) [nM] | IC50 (BaF3_HER2YVMA cells) [nM] | IC50 (BaF3_HER2WT cells) [nM] | IC50 (BaF3_EGFRWT cells) [nM] | SMILES
200 to 500 | < 200 | 1500 to 5000 |  |  |  | C=CC(=O)N(C)C1CCCN(c2ccn3ncnc(Nc4ccc(Oc5ccn6ncnc6c5)c(C)c4)c23)C1 (stereo not drawn) [Example 69, N-(1-(4-((4-([1,2,4]triazolo[1,5-a]pyridin-7-yloxy)-3-methylphenyl)amino)pyrrolo[2,1-f][1,2,4]triazin-5-yl)piperidin-3-yl)-N-methylacrylamide]
1500 to 5000 | 200 to 500 | 1500 to 5000 |  |  |  | Cc1cc(Nc2ncnn3ccc(C4CCN(C(=O)[C@H](F)Cl)CC4)c23)ccc1Oc1ccn2ncnc2c1 (single isomer, unassigned) [Examples 173 and 174, first eluting isomer]
< 200 | < 200 | 1500 to 5000 |  |  |  | Cc1cc(Nc2ncnn3ccc(C4CN(C(=O)/C=C/CN5CCOCC5)C4)c23)ccc1Oc1ccn2ncnc2c1 [Example 37, (E)-1-(3-(4-((4-([1,2,4]triazolo[1,5-a]pyridin-7-yloxy)-3-methylphenyl)amino)pyrrolo[2,1-f][1,2,4]triazin-5-yl)azetidin-1-yl)-4-morpholinobut-2-en-1-one]
< 200 | < 200 | 1500 to 5000 |  |  |  | Cc1cc(Nc2ncnn3ccc(C4CN(C(=O)/C=C/CN5CCC(F)(F)CC5)C4)c23)ccc1Oc1ccn2ncnc2c1 [Example 85, (E)-1-(3-(4-((4-([1,2,4]triazolo[1,5-a]pyridin-7-yloxy)-3-methylphenyl)amino)pyrrolo[2,1-f][1,2,4]triazin-5-yl)azetidin-1-yl)-4-(4,4-difluoropiperidin-1-yl)but-2-en-1-one]
 |  |  | < 200 | < 200 | 1500 to 5000 | C=C(CN(C)C)C(=O)N1CCCC(c2ccn3ncnc(Nc4ccc(Oc5ccn6ncnc6c5)c(C)c4)c23)CC1 (single isomer, unassigned) [Examples 143 and 144, second eluting isomer, 1-(4-(4-((4-([1,2,4]triazolo[1,5-a]pyridin-7-yloxy)-3-methylphenyl)amino)pyrrolo[2,1-f][1,2,4]triazin-5-yl)azepan-1-yl)-2-((dimethylamino)methyl)prop-2-en-1-one]
> 5000 | 1500 to 5000 | > 5000 |  |  |  | Cc1cc(Nc2ncnn3ccc(C(=O)NCCCN(C)C)c23)ccc1N [Example 181, 4-((4-amino-3-methylphenyl)amino)-N-(3-(dimethylamino)propyl)pyrrolo[2,1-f][1,2,4]triazine-5-carboxamide]
 |  |  | 200 to 500 | < 200 | < 200 | C=C(CN(C)C)C(=O)N1CC2CCC1CC2c1ccn2ncnc(Nc3ccc(Oc4ccn5ncnc5c4)c(C)c3)c12 (single isomer, unassigned) [Examples 135 and 136, second eluting isomer, 1-(5-(4-((4-([1,2,4]triazolo[1,5-a]pyridin-7-yloxy)-3-methylphenyl)amino)pyrrolo[2,1-f][1,2,4]triazin-5-yl)-2-azabicyclo[2.2.2]octan-2-yl)-2-((dimethylamino)methyl)prop-2-en-1-one]
< 200 | < 200 | 1500 to 5000 |  |  |  | Cc1cc(Nc2ncnn3ccc(C4CN(C(=O)/C=C\C56CCCN5CCC6)C4)c23)ccc1Oc1ccn2ncnc2c1 [Example 160, (Z)-1-(3-(4-((4-([1,2,4]triazolo[1,5-a]pyridin-7-yloxy)-3-methylphenyl)amino)pyrrolo[2,1-f][1,2,4]triazin-5-yl)azetidin-1-yl)-3-(tetrahydro-1H-pyrrolizin-7a(5H)-yl)prop-2-en-1-one]
< 200 | < 200 | 500 to 1500 |  |  |  | C=CC(=O)N1CCN(c2ccn3ncnc(Nc4ccc(Oc5ccn6ncnc6c5)c(C)c4)c23)CC12CC2 [Example 75, 1-(7-(4-((4-([1,2,4]triazolo[1,5-a]pyridin-7-yloxy)-3-methylphenyl)amino)pyrrolo[2,1-f][1,2,4]triazin-5-yl)-4,7-diazaspiro[2.5]octan-4-yl)prop-2-en-1-one]
500 to 1500 | 200 to 500 | 1500 to 5000 |  |  |  | Cc1cc(Nc2ncnn3ccc(C4CCN(C(=O)/C=C/CN5CC(F)C5)CC4)c23)ccc1Oc1ccc2c(c1)ncn2C [Example 162, (E)-4-(3-fluoroazetidin-1-yl)-1-(4-(4-((3-methyl-4-((1-methyl-1H-benzo[d]imidazol-5-yl)oxy)phenyl)amino)pyrrolo[2,1-f][1,2,4]triazin-5-yl)piperidin-1-yl)but-2-en-1-one]
> 5000 | 1500 to 5000 | 1500 to 5000 |  |  |  | Cc1cc(Nc2c(C#N)cnn3ccc(C4CN(C(=O)/C=C/CN(C)C)C4)c23)ccc1Oc1ccn2ncnc2c1 [Example 86, (E)-4-((4-([1,2,4]triazolo[1,5-a]pyridin-7-yloxy)-3-methylphenyl)amino)-5-(1-(4-(dimethylamino)-but-2-enoyl)azetidin-3-yl)pyrrolo[1,2-b]pyridazine-3-carbonitrile]
< 200 | < 200 | 200 to 500 |  |  |  | C=CC(=O)N1CCCC(c2ccn3ncnc(Nc4ccc(Oc5ccn6ncnc6c5)c(C)c4)c23)CC1 (stereo not drawn) [Example 9, 1-(4-(4-((4-([1,2,4]triazolo[1,5-a]pyridin-7-yloxy)-3-methylphenyl)amino)pyrrolo[2,1-f][1,2,4]triazin-5-yl)azepan-1-yl)prop-2-en-1-one]
< 200 | < 200 | 1500 to 5000 |  |  |  | CO[C@H]1CN(C/C=C/C(=O)N2CCC(c3ccn4ncnc(Nc5ccc(Oc6ccn7ncnc7c6)c(C)c5)c34)CC2)C[C@H]1OC [Example 169, (E)-1-(4-(4-((4-([1,2,4]triazolo[1,5-a]pyridin-7-yloxy)-3-methylphenyl)amino)pyrrolo[2,1-f][1,2,4]triazin-5-yl)piperidin-1-yl)-4-((3R,4S)-3,4-dimethoxypyrrolidin-1-yl)but-2-en-1-one]
500 to 1500 | 200 to 500 | 1500 to 5000 |  |  |  | C=CC(=O)N1C[C@H]2C[C@@H]1C[C@@H]2c1ccn2ncnc(Nc3ccc(Oc4ccn5ncnc5c4)c(C)c3)c12 [Example 141, 1-[(1S,4S,5S)-5-{4-[(3-methyl-4-{[1,2,4]triazolo[1,5-a]pyridin-7-yloxy}phenyl)amino]pyrrolo[2,1-f][1,2,4]triazin-5-yl}-2-azabicyclo[2.2.1]heptan-2-yl]prop-2-en-1-one]
< 200 | < 200 | 1500 to 5000 |  |  |  | Cc1cc(Nc2ncnn3ccc(C4CCN(C(=O)/C=C/CN5CCC(F)C5)CC4)c23)ccc1Oc1ccn2ncnc2c1 (stereo not drawn) [Example 164, (E)-1-(4-(4-((4-([1,2,4]triazolo[1,5-a]pyridin-7-yloxy)-3-methylphenyl)amino)pyrrolo[2,1-f][1,2,4]triazin-5-yl)piperidin-1-yl)-4-(3-fluoropyrrolidin-1-yl)but-2-en-1-one]
< 200 | < 200 | 1500 to 5000 |  |  |  | CNC/C=C/C(=O)N1CCC(c2ccn3ncnc(Nc4ccc(Oc5ccn6ncnc6c5)c(C)c4)c23)CC1 [Example 177, (E)-1-(4-(4-((4-([1,2,4]triazolo[1,5-a]pyridin-7-yloxy)-3-methylphenyl)amino)pyrrolo[2,1-f][1,2,4]triazin-5-yl)piperidin-1-yl)-4-(methylamino)but-2-en-1-one]
> 5000 | 1500 to 5000 | 1500 to 5000 |  |  |  | C=CC(=O)N1CC2(C1)CN(c1ccn3ncnc(Nc4cnc(Oc5ccn6ncnc6c5)c(Cl)c4)c13)C2 [Example 15, 1-(6-(4-((6-([1,2,4]triazolo[1,5-a]pyridin-7-yloxy)-5-chloropyridin-3-yl)amino)pyrrolo[2,1-f][1,2,4]triazin-5-yl)-2,6-diazaspiro[3.3]heptan-2-yl)prop-2-en-1-one]

SMILES | IC50 (BaF3_HER2YVMA cells; 72 h) [nM] | IC50 (BaF3_HER2WT cells; 72 h) [nM] | IC50 (BaF3_EGFRWT cells; 72 h) [nM] | IC50 (BaF3_HER2YVMA cells) [nM] | IC50 (BaF3_HER2WT cells) [nM] | IC50 (BaF3_EGFRWT cells) [nM]
C=CC(=O)N1CC2CCC(C1)N2c1ccn2ncnc(Nc3ccc(Oc4ccn5ncnc5c4)c(C)c3)c12 [Example 44, 1-(8-(4-((4-([1,2,4]triazolo[1,5-a]pyridin-7-yloxy)-3-methylphenyl)amino)pyrrolo[2,1-f][1,2,4]triazin-5-yl)-3,8-diazabicyclo[3.2.1]octan-3-yl)prop-2-en-1-one] | < 200 | < 200 | 1500 to 5000 |  |  | 
Cc1cc(Nc2ncnn3ccc(N4CC5CCC(C4)N5C(=O)/C=C/CN(C)C)c23)ccc1Oc1ccn2ncnc2c1 [Example 47, (E)-1-(3-(4-((4-([1,2,4]triazolo[1,5-a]pyridin-7-yloxy)-3-methylphenyl)amino)pyrrolo[2,1-f][1,2,4]triazin-5-yl)-3,8-diazabicyclo[3.2.1]octan-8-yl)-4-(dimethylamino)but-2-en-1-one] | < 200 | < 200 | 1500 to 5000 |  |  | 
Cc1cc(Nc2ccn3ncnc(C4CC5CCC(C4)N5C(=O)/C=C/CN(C)C)c23)ccc1Oc1ccn2cnnc2c1 (stereo not drawn) [Example 33, (E)-1-(3-(5-((4-([1,2,4]triazolo[4,3-a]pyridin-7-yloxy)-3-methylphenyl)amino)pyrrolo[2,1-f][1,2,4]triazin-4-yl)-8-azabicyclo[3.2.1]octan-8-yl)-4-(dimethylamino)but-2-en-1-one acetate] | 200 to 500 | < 200 | 1500 to 5000 |  |  | 
C=C(CN(C)C)C(=O)N1C2CCC1CN(c1ccn3ncnc(Nc4ccc(Oc5ccn6ncnc6c5)c(C)c4)c13)C2 [Example 48, 1-(3-(4-((4-([1,2,4]triazolo[1,5-a]pyridin-7-yloxy)-3-methylphenyl)amino)pyrrolo[2,1-f][1,2,4]triazin-5-yl)-3,8-diazabicyclo[3.2.1]octan-8-yl)-2-((dimethylamino)methyl)prop-2-en-1-one] | 1500 to 5000 | 200 to 500 | 1500 to 5000 |  |  | 
